Data taken from ChEMBL document CHEMBL1133556, “Carbonic anhydrase inhibitors: water-soluble 4-sulfamoylphenylthioureas as topical intraocular pressure-lowering agents with long-lasting effects” (J Med Chem, 2000).
Values after ≈ are worked out from the molar mass of the structure shown. Residues, ends and D or L forms follow the SMILES beside them. *: point of attachment. X1 = NS(=O)(=O)c1ccc(NC(=S)*)cc1

What was measured:
Carbonic anhydrase 4 = biological target: T1, Carbonic anhydrase 4 (Bos taurus, UniProt Q95323)
T1 sequence (Q95323 whole entry): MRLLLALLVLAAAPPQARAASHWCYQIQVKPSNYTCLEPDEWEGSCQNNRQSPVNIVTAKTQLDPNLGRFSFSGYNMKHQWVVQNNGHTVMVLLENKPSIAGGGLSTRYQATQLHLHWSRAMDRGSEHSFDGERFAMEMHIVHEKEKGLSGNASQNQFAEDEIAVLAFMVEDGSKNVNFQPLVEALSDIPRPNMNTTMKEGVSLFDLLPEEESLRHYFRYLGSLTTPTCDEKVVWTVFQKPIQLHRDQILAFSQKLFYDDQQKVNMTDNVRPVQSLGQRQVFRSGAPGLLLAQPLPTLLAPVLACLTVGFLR
Description: Inhibitory activity against bovine carbonic anhydrase IV from lung microsomes

Carbonic anhydrase 2 = Carbonic anhydrase 2 (Homo sapiens, UniProt P00918)
Description: Inhibitory activity against human recombinant carbonic anhydrase II

Carbonic anhydrase 1 = Carbonic anhydrase 1 (Homo sapiens, UniProt P00915)
Sequence of Carbonic anhydrase 1 (P00915 whole entry): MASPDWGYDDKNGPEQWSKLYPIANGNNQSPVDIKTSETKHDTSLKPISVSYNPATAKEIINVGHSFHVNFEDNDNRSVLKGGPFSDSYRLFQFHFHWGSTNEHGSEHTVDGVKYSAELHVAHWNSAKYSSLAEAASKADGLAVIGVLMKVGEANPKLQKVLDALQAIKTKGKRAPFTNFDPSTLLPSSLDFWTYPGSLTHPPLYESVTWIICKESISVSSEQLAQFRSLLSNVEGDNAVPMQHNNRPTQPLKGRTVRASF
Description: Inhibitory activity against human recombinant carbonic anhydrase I

Oryctolagus cuniculus [1] = species on record: Oryctolagus cuniculus
Oryctolagus cuniculus [2] = species on record: Oryctolagus cuniculus; remark: listed apart in the source
Description: Tested in vivo for lowering IOP (Intraocular Pressure)in Normotensive Rabbits at pH 7.0 after treatment with 50 uL, activity at 30 minutes

Oryctolagus cuniculus [3] = species on record: Oryctolagus cuniculus; remark: listed apart in the source
[4] = octanol/water
Description: Partition coefficient (logD) (chloroform/buffer)

Oryctolagus cuniculus [5] = species on record: Oryctolagus cuniculus; remark: listed apart in the source
Description: Tested in vitro for transcorneal accession rates (corneal permeability) against cornea with no epithelium

Oryctolagus cuniculus [6] = species on record: Oryctolagus cuniculus; remark: listed apart in the source
Description: Tested in vitro for transcorneal accession rates (corneal permeability) against intact cornea

physchem [7] = conditions: buffer, pH 7.4
Description: (§1) Solubility (in uM) in pH 7.40 at 25 degree C

physchem [8] = conditions: buffer, pH 7.4; remark: listed apart in the source
Description: as §1

Oryctolagus cuniculus [9] = species on record: Oryctolagus cuniculus; remark: listed apart in the source
Description: Tested in vivo for lowering IOP (Intraocular Pressure)in Normotensive Rabbits at pH 6.5 after treatment with 50 uL, activity at 90 minutes

Oryctolagus cuniculus [10] = assay: Tested in vivo for lowering IOP (Intraocular Pressure)in Normotensive Rabbits at pH 7.0 after treatment with 50 uL, activity at 60 minutes; format: functional
Oryctolagus cuniculus [11] = assay: Tested in vivo for lowering IOP (Intraocular Pressure)in Normotensive Rabbits at pH 6.5 after treatment with 50 uL, activity at 30 minutes; format: functional
Oryctolagus cuniculus [12] = assay: Tested in vivo for lowering IOP (Intraocular Pressure)in Normotensive Rabbits at pH 6.5 after treatment with 50 uL, activity at 60 minutes; format: functional
Oryctolagus cuniculus [13] = assay: Tested in vivo for lowering IOP (Intraocular Pressure)in Normotensive Rabbits at pH 7.0 after treatment with 50 uL, activity at 90 minutes; format: functional

Ki (Carbonic anhydrase 4) | Ki (Carbonic anhydrase 2) | Ki (Carbonic anhydrase 1) | SMILES | Delta IOP (Oryctolagus cuniculus [1]) | Delta IOP (Oryctolagus cuniculus [2]) | further results
10 nM | 4 nM | 22 nM | CCC(C)C(/N=C(\S)Nc1ccc(S(N)(=O)=O)cc1)C(=O)O (configuration not stated) | 0.3 mmHg | 2 mmHg | Delta IOP (Oryctolagus cuniculus [3]): 4 mmHg
13 nM | 6 nM | 30 nM | NS(=O)(=O)c1ccc(N/C(S)=N/C(Cc2ccccc2)C(=O)O)cc1 (configuration not stated) | 3 mmHg | 4 mmHg | Delta IOP (Oryctolagus cuniculus [3]): 4.1 mmHg
36 nM | 12 nM | 54 nM | CC(/N=C(/S)Nc1ccc(S(N)(=O)=O)cc1)C(=O)O (configuration not stated) | 5.2 mmHg | 4 mmHg | Delta IOP (Oryctolagus cuniculus [3]): 5 mmHg
40 nM | 16 nM | 59 nM | NS(=O)(=O)c1ccc(N/C(S)=N\c2ccc(C(=O)O)cc2)cc1 |  |  | 
 | 185 nM | 5000 nM | NS(=O)(=O)c1ccc(N=C=S)cc1 |  |  | 
18 nM | 7 nM | 35 nM | NS(=O)(=O)c1ccc(N/C(S)=N/C(Cc2ccc(O)c(O)c2)C(=O)O)cc1 (configuration not stated) |  |  | 
13 nM | 4 nM | 27 nM | CSCCC(/N=C(\S)Nc1ccc(S(N)(=O)=O)cc1)C(=O)O (configuration not stated) |  |  | 
13 nM | 5 nM | 23 nM | CC(C)C(/N=C(\S)Nc1ccc(S(N)(=O)=O)cc1)C(=O)O (configuration not stated) |  |  | 
75 nM | 42 nM | 125 nM | NS(=O)(=O)c1ccc(N/C(S)=N\CCc2ccccc2)cc1 |  |  | 
10 nM | 3 nM | 23 nM | NS(=O)(=O)c1ccc(N/C(S)=N/CCC(=O)NC(Cc2c[nH]cn2)C(=O)O)cc1 (configuration not stated) | 4 mmHg | 1 mmHg | logD [4]: 0.725; kin (Oryctolagus cuniculus [5]): 5000 h⁻¹; kin (Oryctolagus cuniculus [6]): 2200 h⁻¹; Delta IOP (Oryctolagus cuniculus [3]): 1.2 mmHg; solubility (physchem [7]): 52 mM (≈ 22.9 mg/mL)
16 nM | 4 nM | 30 nM | CC(O)C(NC(=S)Nc1ccc(S(N)(=O)=O)cc1)C(=O)O (configuration not stated) |  |  | 
 |  |  | CC(=O)/N=c1/sc(S(N)(=O)=O)nn1C [METHAZOLAMIDE] |  |  | logD [4]: 0.06; kin (Oryctolagus cuniculus [5]): 13000 h⁻¹; kin (Oryctolagus cuniculus [6]): 1900 h⁻¹
32 nM | 15 nM | 54 nM | NS(=O)(=O)c1ccc(NC(=S)NCC(=O)NCC(=O)O)cc1 |  |  | 
13 nM | 5 nM | 20 nM | CC(C)CC(/N=C(\S)Nc1ccc(S(N)(=O)=O)cc1)C(=O)NCC(=O)O (configuration not stated) |  |  | 
61 nM | 15 nM | 115 nM | N=C(N)NCCCC(/N=C(\S)Nc1ccc(S(N)(=O)=O)cc1)C(=O)O (configuration not stated) | 4 mmHg | 1 mmHg | Delta IOP (Oryctolagus cuniculus [3]): 1.2 mmHg
17 nM | 8 nM | 35 nM | NS(=O)(=O)c1ccc(NC(=S)NC(CC(=O)O)C(=O)O)cc1 (configuration not stated) | 2 mmHg | 2 mmHg | logD [4]: 0.05; kin (Oryctolagus cuniculus [5]): 800 h⁻¹; kin (Oryctolagus cuniculus [6]): 100 h⁻¹; Delta IOP (Oryctolagus cuniculus [3]): 2.6 mmHg; solubility (physchem [8]): 60 mM (≈ 20.8 mg/mL)

Ki (Carbonic anhydrase 4) | Ki (Carbonic anhydrase 2) | Ki (Carbonic anhydrase 1) | SMILES | Delta IOP (Oryctolagus cuniculus [1]) | Delta IOP (Oryctolagus cuniculus [2]) | further results
27 nM | 10 nM | 59 nM | NS(=O)(=O)c1ccc(NC(=S)N[C@@H](CC(=O)O)C(=O)N[C@@H](CC(=O)O)C(=O)N[C@@H](CC(=O)O)C(=O)N[C@@H](CC(=O)O)C(=O)O)cc1 (X1-DDDD-OH) |  |  | 
19 nM | 10 nM | 38 nM | NS(=O)(=O)c1ccc(NC(=S)NC(CCC(=O)O)C(=O)O)cc1 (configuration not stated) |  |  | 
12 nM | 5 nM | 21 nM | CC(C)CC(/N=C(\S)Nc1ccc(S(N)(=O)=O)cc1)C(=O)O (configuration not stated) | 6 mmHg | 5.2 mmHg | Delta IOP (Oryctolagus cuniculus [10]): 6.3 mmHg
10 nM | 5 nM | 25 nM | NS(=O)(=O)c1ccc(N/C(S)=N/C(CS)C(=O)O)cc1 (configuration not stated) | 0 mmHg | 0 mmHg | logD [4]: 0.09; kin (Oryctolagus cuniculus [5]): 700 h⁻¹; kin (Oryctolagus cuniculus [6]): 300 h⁻¹; Delta IOP (Oryctolagus cuniculus [3]): 0 mmHg; solubility (physchem [8]): 65 mM (≈ 21.8 mg/mL)
39 nM | 20 nM | 62 nM | NS(=O)(=O)c1ccc(N/C(S)=N\CC(=O)O)cc1 | 0.5 mmHg | 3 mmHg | Delta IOP (Oryctolagus cuniculus [3]): 5.9 mmHg
35 nM | 11 nM | 47 nM | NS(=O)(=O)c1ccc(N/C(S)=N\CCC(=O)O)cc1 |  |  | 
15 nM | 5 nM | 32 nM | NS(=O)(=O)c1ccc(N/C(S)=N/C(Cc2c[nH]cn2)C(=O)O)cc1 (configuration not stated) | 4 mmHg | 4 mmHg | Delta IOP (Oryctolagus cuniculus [10]): 4.6 mmHg
23 nM | 9 nM | 40 nM | NC(=O)CCC(NC(=S)Nc1ccc(S(N)(=O)=O)cc1)C(=O)O (configuration not stated) |  |  | 
36 nM | 18 nM | 50 nM | NS(=O)(=O)c1ccc(N/C(S)=N\c2cccc(C(=O)O)c2)cc1 |  |  | 
13 nM | 5 nM | 26 nM | NS(=O)(=O)c1ccc(N/C(S)=N/C(Cc2ccc(O)cc2)C(=O)O)cc1 (configuration not stated) |  |  | 
68 nM | 25 nM | 110 nM | NS(=O)(=O)c1ccc(NC(=S)N2CCCC2C(=O)O)cc1 (configuration not stated) | 1 mmHg | 0 mmHg | Delta IOP (Oryctolagus cuniculus [3]): 1 mmHg
32 nM | 15 nM | 50 nM | NS(=O)(=O)c1ccc(NC(=S)NC(CC(=O)O)C(=O)NC(CC(=O)O)C(=O)O)cc1 (configuration not stated) |  |  | 
29 nM | 13 nM | 55 nM | NS(=O)(=O)c1ccc(N/C(S)=N\c2ccccc2C(=O)O)cc1 |  | 4.3 mmHg | Delta IOP (Oryctolagus cuniculus [13]): 0.9 mmHg; Delta IOP (Oryctolagus cuniculus [3]): 8 mmHg
 |  |  | NS(=O)(=O)c1nnc(NS(=O)(=O)c2ccccc2)s1 [BENZOLAMIDE] |  |  | logD [4]: 0.00001; kin (Oryctolagus cuniculus [5]): 40 h⁻¹; kin (Oryctolagus cuniculus [6]): 10 h⁻¹; solubility (physchem [7]): 1.2 mM (≈ 0.384 mg/mL)
 |  |  | CCOc1ccc2nc(S(N)(=O)=O)sc2c1 [ETHOXZOLAMIDE] |  |  | solubility (physchem [7]): 0.04 mM (≈ 0.0103 mg/mL)

SMILES | Ki (Carbonic anhydrase 4) | Ki (Carbonic anhydrase 2) | Ki (Carbonic anhydrase 1) | Delta IOP (Oryctolagus cuniculus [1]) | Delta IOP (Oryctolagus cuniculus [2]) | further results
CC(/N=C(/S)Nc1ccc(S(N)(=O)=O)cc1)C(=O)NC(Cc1ccccc1)C(=O)O (configuration not stated) | 13 nM | 4 nM | 23 nM | 3 mmHg | 0.2 mmHg | Delta IOP (Oryctolagus cuniculus [3]): 0.2 mmHg
NS(=O)(=O)c1ccc(NC(S)=NC(Cc2c[nH]cn2)C(=O)NC(Cc2ccccc2)C(=O)O)cc1 (configuration not stated) | 9 nM | 3 nM | 21 nM |  |  | 
NS(=O)(=O)c1ccc(N/C(S)=N/C(Cc2c[nH]c3ccccc23)C(=O)O)cc1 (configuration not stated) | 24 nM | 11 nM | 47 nM |  |  | 
NS(=O)(=O)c1ccc(N/C(S)=N/C(C(=O)O)c2ccccc2)cc1 (configuration not stated) | 15 nM | 6 nM | 40 nM |  |  | logD [4]: 3.652; kin (Oryctolagus cuniculus [5]): 14300 h⁻¹; kin (Oryctolagus cuniculus [6]): 5900 h⁻¹; solubility (physchem [8]): 54 mM (≈ 19.7 mg/mL)
NS(=O)(=O)c1ccc(NC(=S)N2CCC[C@H]2C(=O)NCC(=O)NCC(=O)O)cc1 | 11 nM | 3 nM | 20 nM |  |  | 
NS(=O)(=O)c1ccc(N/C(S)=N\Cc2ccccn2)cc1 | 76 nM | 45 nM | 135 nM |  |  | Delta IOP (Oryctolagus cuniculus [9]): 0.6 mmHg
NS(=O)(=O)c1ccc(N/C(S)=N\CCc2c[nH]cn2)cc1 | 56 nM | 33 nM | 92 nM |  |  | Delta IOP (Oryctolagus cuniculus [11]): 3 mmHg; Delta IOP (Oryctolagus cuniculus [12]): 0.3 mmHg; Delta IOP (Oryctolagus cuniculus [9]): 0 mmHg
NS(=O)(=O)c1ccc(N/C(S)=N\CCc2ccccn2)cc1 | 77 nM | 40 nM | 124 nM |  |  | 
NS(=O)(=O)c1ccc(N/C(S)=N/C(C(=O)O)C(O)c2ccccc2)cc1 (configuration not stated) | 9 nM | 2 nM | 24 nM | 9.6 mmHg | 9 mmHg | logD [4]: 2.314; kin (Oryctolagus cuniculus [5]): 12300 h⁻¹; kin (Oryctolagus cuniculus [6]): 4900 h⁻¹; Delta IOP (Oryctolagus cuniculus [3]): 10 mmHg; solubility (physchem [7]): 48 mM (≈ 19 mg/mL)
NS(=O)(=O)c1ccc(NC(=S)NC(Cc2cnc[nH]2)C(=O)NCC(=O)O)cc1 (configuration not stated) | 6 nM | 1 nM | 13 nM |  |  | 
